# Earlier results as cited in patent publication US5648564A, “Process for the formation, isolation and purification of comestible xanthophyll crystals from plants” (Kemin Industries, Inc., priority 1995, dated 1997).
# Tested on: rat
# Conditions: oral
row,Compound,LD50 [mL/kg]
1,c1ccncc1 [Pyridine],1.58
2,CCOC(C)=O [Ethyl Acetate],11.3
3,ClC(Cl)Cl [Chloroform],2.18
4,"CC(O)CO (stereo not drawn) [Propylene Glycol, 1,2-propanediol]",25

# Tested on: not given
# Conditions: consumption of lutein and zeaxanthin (reported jointly)
row,Compound,reduction in age-related macular degeneration [%]
1,CC1=C(/C=C/C(C)=C/C=C/C(C)=C/C=C/C=C(C)/C=C/C=C(C)/C=C/C2=C(C)C[C@@H](O)CC2(C)C)C(C)(C)C[C@H](O)C1 [zeaxanthin],40
2,CC1=C[C@H](O)CC(C)(C)[C@H]1/C=C/C(C)=C/C=C/C(C)=C/C=C/C=C(C)/C=C/C=C(C)/C=C/C1=C(C)C[C@@H](O)CC1(C)C [lutein],40
